Values quoted from earlier work, collected in US20090317464A1, “METHODS AND COMPOSITIONS FOR PRODUCING ANTI-ANDROGENIC EFFECTS” (PANACEA BIOTEC LTD., priority 2006, published 2009).

CC(O)(CS(=O)(=O)c1ccc(F)cc1)C(=O)Nc1ccc(C#N)c(C(F)(F)F)c1 (stereo not drawn) [Bicalutamide, 4-cyano-3-trifluoromethyl-N-(3-p-fluorophenylsulphony 1-2-hydroxy-2-methylpropionyl) aniline]
steady state concentration (Css) versus dose (daily administration to patients, above 300 mg, studied at 450 and 600 mg dose): no further increase in Css is observed
half life (in vivo): approximately 5.8 days
time to peak plasma concentration (in vivo): about 31 hours
